Among the data in article PMC10814725, “In Vitro Anti-Inflammatory Study of Limonoids Isolated from Chisocheton Plants” (Current Issues in Molecular Biology, 2024) are viability, IC50 and CC50 values, retold here.

The nature of data set [1]: Cell viability by CCK-8, HEK-Blue hTLR4 cells. In kind it is cell-based. To be noted: human. The method, then:
(§1) The viability of HEK-Blue^TM hTLR4, […], and THP-1 cells was evaluated using the Dojindo Cell Counting Kit-8 (CCK-8) according to the manufacturer’s instructions. The viability of HEK-Blue^TM hTLR4 and THP-1 cells was assessed under identical conditions to the corresponding assay treatments. HEK-Blue^TM hTLR4 cells (2 × 10^4 cells/well) were seeded in 96-well plates and serum-starved for 24 h at 37 °C in a 5% CO2 atmosphere. After incubation, the culture medium was aspirated, and the cells were washed with saline. High-glucose D-MEM supplemented with 0.1% FBS and 1% penicillin–streptomycin was added and pretreated with or without the 17 limonoids at a concentration of 20 µM for 1 h, followed by LPS addition at a concentration of 10 ng/mL. After 18 h of incubation, a 10% (v/v) CCK-8 solution was added to each well and incubated at 37 °C for 1 h, and cell viability was calculated.

Another data set is described as follows: in vitro. In kind it is cell-based. To be noted: mouse. As to the method: as §1
The nature of data set [2]: Cell viability by CCK-8, THP-1 cells. To be noted: human, PMA-differentiated THP-1 cells. The data set is classed as cell-based. As to the method: as §1
The THP-1 cells at 5 × 10^4 cells/well were differentiated for 24 h in the presence of PMA (0.5 μM solution in medium). After 24 h of incubation, the culture medium was removed from the 96-well plate and the cells were washed with PBS. Fresh RPMI-1640 medium supplemented with 0.1% FBS and 1% penicillin–streptomycin was added to each well and incubated at 37 °C for overnight. The cells were pretreated with 17 limonoids at the corresponding concentration for 1 h followed by the addition of LPS (10 ng/mL) and incubated at 37 °C for 18 h. Furthermore, CCK-8 solution was added to each well with a final concentration was 10% (v/v) and incubated at 37 °C. After 1 h, the absorbance of each well was measured at […] by using a microplate reader (BioTek Cytation 5 Cell Imaging Multimode Reader). Cell viability was calculated using the following formula: % Cell viability=(Absorbance of sample−Absorbance of Background)/(Absorbance of control−Absorbance of Background)×100 where the absorbance of the sample is the absorbance of cells treated by the compound with or without LPS, the absorbance of the control is the absorbance of LPS (−)-treated cells, and the background absorbance is the absorbance of a well containing only the medium. The results were expressed as 100% cell viability.

Data set [3] concerns TNF-α, IL-6, IL-1β, and MCP-1. In words: ELISA of pro-inflammatory markers overall (TNF-α, IL-6, IL-1β, MCP-1) in LPS-stimulated THP-1 cells. In kind it is cell-based. To be noted: Homo sapiens, read-out: Overall IC50 values for the evaluated pro-inflammatory markers. As to the method:
(§2) The logarithmic growth phase of THP-1 cells was achieved by seeding in 96-well plates at a density of 5 × 10^4 cells/well and differentiated for 24 h in the presence of PMA (0.5 μM solution in medium). After 24 h of incubation, the culture medium was removed from the 96-well plate and the cells were washed with PBS. Fresh RPMI-1640 medium supplemented with 0.1% FBS and 1% Penicillin–Streptomycin was added to each well and incubated at 37 °C overnight. The cells were pretreated with 17 limonoids at the corresponding concentration for 1 h, followed by the addition of LPS (10 ng/mL) and then incubation at 37 °C for 18 h. Finally, 50 μL of each culture supernatant solution was taken to determine the concentrations of IL-6, MCP-1, and IL-1β using the corresponding commercially available human ELISA kits following the manufacturer’s instructions. The analyte concentration in the supernatant was measured in pg/mL, and the inhibition level was expressed as a fold change compared to the LPS (−) control group. To determine the IC50 value, the dose-response data were normalized to the LPS-stimulated-only group, and the percentage of inhibition was calculated using the following formula: % Inhibition=(Absorbance of LPS+ control−Absorbance of compound treatment with LPS)/(Absorbance of LPS+ control−Absorbance of LPS− control)×100
(§3) Furthermore, the % inhibition data were interpolated into linear equations to determine the IC50 values.

The test system of another data set is IL-6. Nature of the data set: ELISA of IL-6 production in LPS-stimulated THP-1 cells. The data set is classed as cell-based, human. To be noted: Homo sapiens, THP-1, 18 h, LPS-stimulated (10 ng/mL) THP-1 cells, 1, 5, 10, 20 µM, 18 h. The method, then:
as §2, with “Fresh RPMI-1640 medium supplemented with 0.1% FBS and 1% Penicillin–Streptomycin was added to each well and incubated at 37 °C overnight.” left out
as §3

In another data set the test system is TNF-α. In words: ELISA of TNF-α production in LPS-stimulated THP-1 cells. The data set is classed as cell-based, human. To be noted: Homo sapiens, THP-1, 18 h, LPS-stimulated (10 ng/mL) THP-1 cells, 1, 5, 10, 20 µM, 18 h; read-out: TNF-α IC50. For orientation: ELISA stands for enzyme-linked immunosorbent assay.
The next data set relates to MCP-1. Nature of the data set: ELISA of MCP-1 production in LPS-stimulated THP-1 cells. In kind it is cell-based, human. To be noted: Homo sapiens; LPS-stimulated (10 ng/mL) THP-1 cells, 1, 5, 10, 20 µM, 18 h. The method, then: as §2, with “Fresh RPMI-1640 medium supplemented with 0.1% FBS and 1% Penicillin–Streptomycin was added to each well and incubated at 37 °C overnight.” left out
as §3

Where [4] appears, read: Viability Cell (%) HEK-Blue hTLR4 LPS-Induced (10 ng/mL).
Where [5] appears, read: Viability Cell (%) HEK-Blue hTLR4 Without LPS.
Where [6] appears, read: LPS 10 ng/mL, read-out: Viability Cell (%) THP-1 LPS-Induced (10 ng/mL).
[7] abbreviates: without LPS, read-out: Viability Cell (%) THP-1 Without LPS.
[8] abbreviates: RAW264.7 macrophages, 5 µM, read-out: Viability cell (%) RAW 264.7 5 µM.
Where [9] appears, read: RAW264.7 macrophages, 10 µM, read-out: Viability cell (%) RAW 264.7 10 µM.
[10] abbreviates: RAW264.7 macrophages, 20 µM, read-out: Viability cell (%) RAW 264.7 20 µM.

Molecules are shown by their SMILES. Like-named read-outs stand apart in the source and are kept apart here.

Regarding `CC1(C)C(=O)C=C[C@]2(C)[C@H]3CC[C@]4(C)C(C(=O)C[C@H]4c4ccoc4)[C@]3(C)[C@H](O)C[C@@H]12` (stereo partly drawn) [Compound 1, 7α-hydroxyneotrichilenone], the viability at 18 h, 20 µM in data set [1] (setting [4]) is more than 99.9%. Besides, the viability at 18 h, 20 µM in data set [1] (setting [5]) was more than 99.9%. Further, in the data set “in vitro”, the viability at 5 µM was more than 99.9%, the viability at 10 µM was more than 99.9% and the viability at 20 µM was more than 99.9%. In addition, the viability at 18 h, 10 µM in data set [2] (setting [6]) is more than 99.9%. Moreover, the viability at 18 h, 10 µM in data set [2] (setting [7]) is more than 99.9%.
As for `CC(=O)O[C@@H]1C[C@H]2C(C)(C)C(=O)C=C[C@]2(C)[C@H]2CC[C@]3(C)C(C(=O)C[C@H]3c3ccoc3)[C@@]21C` (stereo partly drawn) [Compound 2, 7α-acetylneotrichilenone], the viability at 18 h, 20 µM in data set [1] (setting [4]) stood at 75.5 ± 13.8%. Besides, the viability at 18 h, 20 µM in data set [1] (setting [5]) amounted to 61.2 ± 1.22%. Further, in the data set “in vitro”, the viability at 5 µM was 96.2 ± 3.67%, the viability at 10 µM is more than 99.9% and the viability at 20 µM was more than 99.9%. Moreover, in data set [2] (setting [6]), the viability at 18 h, 10 µM is more than 99.9%. In addition, the viability at 18 h, 10 µM in data set [2] (setting [7]) is more than 99.9%.
Regarding `CC(=O)O[C@H]1[C@@H](OC(C)=O)[C@@]2(C)C3=CC[C@@H](C4=CCOC4=O)[C@]3(C)CC[C@@H]2[C@@]2(C)C=CC(=O)C(C)(C)[C@H]12` [Compound 6, lasiocarpine A], the viability at 18 h, 20 µM is 58.3 ± 1.89% in data set [1] (20 µM, 18 h, LPS 10 ng/mL, read-out: Viability Cell (%) HEK-Blue hTLR4 LPS-Induced (10 ng/mL)) and 77.1 ± 2.13% in data set [1] (20 µM, 18 h, without LPS, read-out: Viability Cell (%) HEK-Blue hTLR4 Without LPS). In addition, the viability at 5 µM in the data set “in vitro” (5 µM, read-out: Viability cell (%) RAW 264.7 5 µM) came out at 103 ± 6.05%. Also, the viability at 10 µM in “in vitro” (10 µM, read-out: Viability cell (%) RAW 264.7 10 µM) was more than 99.9%. Moreover, the viability at 20 µM in the data set “in vitro” (20 µM, read-out: Viability cell (%) RAW 264.7 20 µM) was 96.7 ± 2.14%. The viability at 18 h, 10 µM in data set [2] (setting [6]) is more than 99.9%; in data set [2] (setting [7]), 90.7 ± 3.82%.
`CC(=O)O[C@H]1[C@@H](OC(C)=O)[C@@]2(C)C3C(=O)C[C@@H](c4ccoc4)[C@]3(C)CC[C@@H]2[C@@]2(C)C=CC(=O)C(C)(C)[C@H]12` (stereo partly drawn) [Compound 7, toonaciliatone F]: the viability at 18 h, 20 µM in data set [1] (setting [4]) worked out at 87.3 ± 4%. Further, in data set [1] (setting [5]), the viability at 18 h, 20 µM turned out to be 92.9 ± 2.11%. Also, in the data set “in vitro”, the viability at 5 µM was more than 99.9%, the viability at 10 µM is more than 99.9% and the viability at 20 µM came out at 95.9 ± 2.19%. Moreover, the viability at 18 h, 10 µM in data set [2] (setting [6]) was more than 99.9%. In addition, the viability at 18 h, 10 µM in data set [2] (setting [7]) was more than 99.9%.
On to `CC(=O)O[C@H]1[C@@H](OC(C)=O)[C@]2(C)[C@H](CCC3=C(c4ccoc4)C[C@@H](O)[C@]32C)[C@@]2(C)C=CC(=O)C(C)(C)[C@H]12` [Compound 8, toonaciliatone C], for which the viability at 18 h, 20 µM in data set [1] (HEK-Blue hTLR4 cells, 20 µM, 18 h, LPS 10 ng/mL, read-out: Viability Cell (%) HEK-Blue hTLR4 LPS-Induced (10 ng/mL)) is 88 ± 6.37%; in data set [1] (HEK-Blue hTLR4 cells, 20 µM, 18 h, without LPS, read-out: Viability Cell (%) HEK-Blue hTLR4 Without LPS) it was more than 99.9%. Also, in the data set “in vitro” (setting [8]), the viability at 5 µM amounted to 89.5 ± 9.38%. For the same compound, the viability at 10 µM in the data set “in vitro” (setting [9]) stood at 94.75 ± 0.32%. In addition, in the data set “in vitro” (setting [10]), the viability at 20 µM worked out at 87.5 ± 3.33%. For the same compound, the results for the viability at 18 h, 10 µM in data set [2] (setting [6]) and in data set [2] (setting [7]) were 94 ± 9.84% and more than 99.9%, respectively.
On to `CC(=O)O[C@H]1[C@@H](OC(C)=O)[C@]2(C)[C@H](CC[C@@]3(C)[C@H](c4ccoc4)C(=O)[C@H]4O[C@@]423)[C@@]2(C)C=CC(=O)C(C)(C)[C@H]12` [Compound 10, 6α-acetylepoxyazadirone], for which the viability at 18 h, 20 µM in data set [1] (setting [4]) and in data set [1] (setting [5]) was more than 99.9% throughout. In addition, the viability at 5 µM in the data set “in vitro” was 93.2 ± 4.2%. Moreover, the viability at 10 µM in the data set “in vitro” amounted to 82.1 ± 1.31%. The viability at 20 µM in the data set “in vitro” came out at 86.1 ± 4.07%. Also, the viability at 18 h, 10 µM in data set [2] (setting [6]) and in data set [2] (setting [7]) was more than 99.9% in each case.
Take `C[C@]12C3=CC[C@@H](C4=CC(O)OC4=O)[C@]3(C)CC[C@@H]1[C@@]1(C)C(=O)C=C[C@@]3(C)CO[C@@H]([C@H]2O)[C@H]13` (stereo partly drawn) [Compound 14, pentandricine]: the half-maximal inhibitory concentration (IC50) in data set [3] is less than 20 µM. Further, the viability at 18 h, 20 µM in data set [1] (setting [4]) was more than 99.9%. The viability at 18 h, 20 µM in data set [1] (setting [5]) is more than 99.9%. In addition, in the data set “in vitro”, the viability at 5 µM was more than 99.9%, the viability at 10 µM stood at 88.2 ± 3.86% and the viability at 20 µM was 91.3 ± 4.19%. Also, the viability at 18 h, 10 µM in data set [2] (setting [6]) amounted to 91.1 ± 9.03%. The viability at 18 h, 10 µM in data set [2] (setting [7]) was more than 99.9%.
In the case of `C[C@@H]1C[C@H]2[C@@H]3CCC4=CC(=O)C=C[C@]4(C)[C@@]3(F)[C@@H](O)C[C@]2(C)[C@@]1(O)C(=O)CO` [Dex, dexamethasone, reference compound], the IC50 in the data set on IL-6 is 720 nM; in the data set on TNF-α, 2170 nM; in the data set on MCP-1, 500 nM. Also, in data set [2] (concentration causing 50% cytotoxicity against THP-1 cells), the CC50 at 18 h stood at 28.2 µM.
As for `COc1cc([C@@H]2c3cc4c(cc3[C@@H](O[C@@H]3O[C@@H]5CO[C@@H](C)O[C@H]5[C@H](O)[C@H]3O)[C@H]3COC(=O)[C@H]23)OCO4)cc(OC)c1O` [Etoposide, reference compound], the viability at 5 µM in the data set “in vitro” (setting [8]) came to 67.5 ± 2.36%. Also, the viability at 10 µM in “in vitro” (setting [9]) is 54.8 ± 2.58%. The viability at 20 µM in “in vitro” (setting [10]) came out at 38.9 ± 3.19%.

For orientation: IC50 means the point on the concentration scale where inhibition reaches its midpoint. In general, CC50 refers to the concentration giving 50% cytotoxicity. A high value points to lower toxicity to the cells.
